Values quoted from earlier work in US20240165081A1, “COMPOSITIONS AND METHODS FOR TREATMENT OF INSOMNIA” (priority 2022, published 2024).

Target: adenosine A2A receptor (Homo sapiens, UniProt P29274)
Sequence (P29274 whole entry): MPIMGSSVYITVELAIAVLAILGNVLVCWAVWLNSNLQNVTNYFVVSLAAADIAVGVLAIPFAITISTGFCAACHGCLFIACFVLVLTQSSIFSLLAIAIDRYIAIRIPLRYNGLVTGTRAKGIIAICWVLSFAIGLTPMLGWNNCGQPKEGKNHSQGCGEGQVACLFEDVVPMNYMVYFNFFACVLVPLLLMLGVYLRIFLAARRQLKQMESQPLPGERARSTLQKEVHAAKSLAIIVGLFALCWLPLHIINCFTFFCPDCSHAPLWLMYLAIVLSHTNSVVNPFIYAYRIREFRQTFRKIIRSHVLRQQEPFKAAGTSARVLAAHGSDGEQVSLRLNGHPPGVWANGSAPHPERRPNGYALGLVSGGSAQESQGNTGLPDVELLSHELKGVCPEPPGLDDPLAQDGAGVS

SMILES: C=C(C)C1CC=C(C)CC1 [D-limonene, 4-isopropenyl-1-methylcyclohexene]
- binding to the adenosine A2A receptor: found to bind to the adenosine A2A receptor
